Experimental data as given in PubChem BioAssay (NCI).
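Results reflect a 48-hour exposure of cells in 96-well plates to compound at five concentrations. TGI denotes the concentration required for complete inhibition of growth.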

Tests used:
Experiment in all cases: growth of human tumour cells (NCI), 48 h
786-0 renal = test system: 786-0 renal
A498 renal = test system: A498 renal
A549 NSCLC = test system: A549 NSCLC
ACHN renal = test system: ACHN renal
CAKI-1 renal = test system: CAKI-1 renal
CCRF-CEM leukemia = test system: CCRF-CEM leukemia
COLO 205 colon = test system: COLO 205 colon
DLD-1 colon = test system: DLD-1 colon
DMS 114 small cell lung = test system: DMS 114 small cell lung
DMS 273 small cell lung = test system: DMS 273 small cell lung
EKVX NSCLC = test system: EKVX NSCLC
HCC-2998 colon = test system: HCC-2998 colon
HCT-116 colon = test system: HCT-116 colon
HCT-15 colon = test system: HCT-15 colon
HL-60(TB) leukemia = test system: HL-60(TB) leukemia
HOP-18 NSCLC = test system: HOP-18 NSCLC
HOP-62 NSCLC = test system: HOP-62 NSCLC
HOP-92 NSCLC = test system: HOP-92 NSCLC
HT29 colon = test system: HT29 colon
IGROV1 ovarian = test system: IGROV1 ovarian
K-562 leukemia = test system: K-562 leukemia
KM12 colon = test system: KM12 colon
LOX IMVI melanoma = test system: LOX IMVI melanoma
M14 melanoma = test system: M14 melanoma
M19-MEL melanoma = test system: M19-MEL melanoma
MALME-3M melanoma = test system: MALME-3M melanoma
MOLT-4 leukemia = test system: MOLT-4 leukemia
NCI-H226 lung = test system: NCI-H226 lung
NCI-H23 lung = test system: NCI-H23 lung
NCI-H460 lung = test system: NCI-H460 lung
OVCAR-3 ovarian = test system: OVCAR-3 ovarian
OVCAR-4 ovarian = test system: OVCAR-4 ovarian
OVCAR-5 ovarian = test system: OVCAR-5 ovarian
OVCAR-8 ovarian = test system: OVCAR-8 ovarian
RPMI-8226 leukemia = test system: RPMI-8226 leukemia
RXF 393 renal = test system: RXF 393 renal
RXF-631 renal = test system: RXF-631 renal
SF-268 CNS = test system: SF-268 CNS
SF-295 CNS = test system: SF-295 CNS
SF-539 CNS = test system: SF-539 CNS
SK-MEL-2 melanoma = test system: SK-MEL-2 melanoma
SK-MEL-28 melanoma = test system: SK-MEL-28 melanoma
SK-MEL-5 melanoma = test system: SK-MEL-5 melanoma
SK-OV-3 ovarian = test system: SK-OV-3 ovarian
SN12C renal = test system: SN12C renal
SNB-19 CNS = test system: SNB-19 CNS
SNB-75 CNS = test system: SNB-75 CNS
SNB-78 CNS = test system: SNB-78 CNS
SW-620 colon = test system: SW-620 colon
TK-10 renal = test system: TK-10 renal
U251 CNS = test system: U251 CNS
UACC-257 melanoma = test system: UACC-257 melanoma
UACC-62 melanoma = test system: UACC-62 melanoma
UO-31 renal = test system: UO-31 renal

Measured: TGI

O=C1CCC(O)=C1N=Nc1cc(Cl)cc(Cl)c1
98.2 µM: OVCAR-3 ovarian
91 µM: A498 renal
> 100 µM: all other assays above
